From patent US11299782B2, “Methods for predicting anti-cancer response” (Children's Medical Center Corporation, priority 2012, dated 2022)

Tested on: operable TNBC
Assay: Cisplatin-1 clinical trial: preoperative cisplatin monotherapy, pathologic response
Format: in vivo, human
Procedure: We performed a clinical trial, Cisplatin-1, in which 28 patients with operable TNBC were treated preoperatively with cisplatin monotherapy. […] A second trial, Cisplatin-2, accrued 51 patients with TNBC who received the same preoperative cisplatin regimen as Cisplatin-1, but in combination with the angiogenesis inhibitor bevacizumab (Ryan, P. D., et al. Neoadjuvant cisplatin and bevacizumab in triple negative breast cancer (TNBC): Safety and Efficacy. J Clin Oncol 2009; 27: 551). Response rate in Cisplatin-2 were similar to Cisplatin-1. […] In Cisplatin-2, 8 patients carried a germline BRCA1 or BRCA2 mutation, of which 4 patients achieved a pCR or near pCR to the cisplatin-bevacizumab regimen. In both trials, all patients had research sequencing to determine their germline BRCA1 and BRCA2 status. Thus in some aspects of all the embodiments of the invention, the BRCA1 and BRCA2 status can be determined either simultaneously with or before the allelic imbalance or telomeric allelic imbalance analysis. In some aspects, only patients without BRCA1 or BRCA2 mutations are subjected to the NAI (number of allelic imbalance) or NtAI (number of telomeric allelic imbalance) assays or analyses. Cisplatin was used as an example of platinum comprising cancer therapies. A total of 28 mainly sporadic TNBC patients were treated with cisplatin monotherapy in the neo-adjuvant setting (Silver et al. (2010) J. Clin. Oncol. 28, 1145-1153). Cisplatin response was measured using the semiquantitative Miller-Payne score by pathological assessment of surgical samples after therapy (Ogston et al. (2003) Breast 12, 320-327). […] Therapeutic response was measured using the semiquantitative Miller-Payne grading system, which estimates the percent reduction in invasive tumor volume and cellularity based on pathological assessment of surgical samples after therapy (Ogston, K. N., et al., A new histological grading system to assess response of breastcancers to primary chemotherapy: prognostic significance and survival. Breast 2003; 12: 320-327). […]

N.N.[Cl][Pt][Cl] [cisplatin]
patients with greater than 90% tumor reduction (10 of 28 patients, preoperative cisplatin monotherapy): 36% | patients progressed on therapy (of 28 patients): 4 | pathologic complete response (pCR), number of women (of 28 patients, 2 of them had BRCA1-associated cancers): 6
